Among the data in BindingDB's records for doi:10.1016/j.bmcl.2006.01.061 (Institute of Genomics and Integrative Biology, 2006) are IC50 values, retold here.

Square brackets hold non-standard residues; d marks the D form. Peptide text beside a SMILES is read from it. Trp(5-OH) = N[C@@H](Cc1c[nH]c2ccc(O)cc12)C(=O)O; NMeW = CN[C@@H](Cc1c[nH]c2ccccc12)C(=O)O; Orn = NCCC[C@H](N)C(=O)O

For orientation: IC50 means the concentration at which inhibition is half-maximal. A low value points to greater potency.

The assay addresses Angiotensin-converting enzyme (Bos taurus). The assay is described as follows: Inhibition of ACE in bovine kidney.
In turn, `NCCC[C@H](NC(=O)CCc1nc2ccccc2[nH]1)C(=O)N1CCC[C@H]1C(=O)O` [BPA-Lys-Pro] showed an IC50 of 10 µM. The result for `NCCC[C@H](NC(=O)[C@@H](N)Cc1c[nH]c2ccc(O)cc12)C(=O)N1CCC[C@H]1C(=O)O` [HTP-Orn-Pro] (H-[Trp(5-OH)]-[Orn]-Pro-OH) reads 4 µM. The result for `CN[C@@H](Cc1c[nH]c2ccccc12)C(=O)N[C@@H](CCCN)C(=O)N1CCC[C@H]1C(=O)O` [MTP-Orn-Pro] (H-[NMeW]-[Orn]-Pro-OH) reads 10 µM.
